In ChEMBL document CHEMBL1158721, “Brasilibactin A, a cytotoxic compound from actinomycete Nocardia brasiliensis” (J Nat Prod, 2005):
Converted amounts (≈) assume the structure as drawn.

Assays:
Assay type in all cases: functional, cell-based
HL-60 = assay: Induction of apoptosis in human HL60 cells assessed as increase in caspase3 activity
L1210 = assay: Cytotoxicity against mouse L1210 cells
KB = assay: Cytotoxicity against human KB cells

## CCCCCCCCCCCCCCC[C@H](OC(=O)[C@@H](CCCCN(O)C=O)NC(=O)[C@H]1COC(c2ccccc2O)=N1)[C@@H](C)C(=O)N[C@@H]1CCCCN(O)C1=O [BRASILIBACTIN A]
HL-60
  Activity: Dose-dependent effect
L1210
  IC50: 0.02 µg/mL (≈ 0.0249 µM)
KB
  IC50: 0.04 µg/mL (≈ 0.0499 µM)
